# In patent US20240262832A1, “SMALL MOLECULE MODULATORS OF GLUCOCEREBROSIDASE ACTIVITY AND USES THEREOF” (Vanqua Bio, Inc., priority 2021, published 2024):
# Target: T1, GCase (Homo sapiens, UniProt P04062)
# T1 construct: endogenous in cells; host or cells: HeLa cells
# T1 sequence (P04062 40-536): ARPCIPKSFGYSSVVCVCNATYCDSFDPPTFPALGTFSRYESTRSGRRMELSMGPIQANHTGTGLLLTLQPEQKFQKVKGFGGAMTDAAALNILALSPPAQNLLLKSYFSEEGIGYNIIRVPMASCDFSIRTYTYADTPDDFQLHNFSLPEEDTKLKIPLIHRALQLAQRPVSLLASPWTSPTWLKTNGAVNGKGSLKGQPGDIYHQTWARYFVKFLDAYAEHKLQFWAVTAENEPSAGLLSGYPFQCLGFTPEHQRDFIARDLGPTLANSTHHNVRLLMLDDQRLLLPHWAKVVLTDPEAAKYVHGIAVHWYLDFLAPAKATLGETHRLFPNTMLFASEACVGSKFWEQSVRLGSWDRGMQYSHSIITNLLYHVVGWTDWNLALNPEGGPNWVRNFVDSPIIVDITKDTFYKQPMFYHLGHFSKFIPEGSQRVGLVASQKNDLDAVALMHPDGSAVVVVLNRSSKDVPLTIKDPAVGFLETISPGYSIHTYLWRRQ
# Experiment: activation of GCase in a live cell PFB assay in HELA cells
# Format: cell-based
row,Compound,EC50 [µM]
1,"FC(F)Cn1ncc2cnc(N3CCCC(COc4cccnc4C(F)(F)F)C3)nc21 (stereo not shown) [Compound 119, 1-(2,2-difluoroethyl)-6-(3-(((2-(trifluoromethyl)pyridin-3-yl)oxy)methyl)piperidin-1-yl)-1H-pyrazolo[3,4-d]pyrimidine]",10 to 50
2,"O=C(Cc1csc(-c2ccccc2)n1)N1CCC(COCc2ccccc2)CC1 [Compound 335, 1-{4-[(Benzyloxy)methyl]piperidin-1-yl}-2-(2-phenyl-1,3-thiazol-4-yl)ethan-1-one]",10 to 50
3,Cn1c(-c2ccc(F)cc2)nc2nc(C(=O)N3C[C@@H]4[C@@H](COc5cccnc5C(F)(F)F)[C@@H]4C3)cnc21 [Compound 223],> 100
4,"CC(=O)N1CCC(c2cc3nc(N4CCCC(COc5ccccc5)C4)cnc3n2C)CC1 (stereo not shown) [Compound 41, 1-(4-{5-Methyl-2-[3-(phenoxymethyl)piperidin-1-yl]-5H-pyrrolo[2,3-b]pyrazin-6-yl}piperidin-1-yl)ethan-1-one]",> 100
5,"Cc1ccccc1OCC1CCCN(C(=O)c2c(-c3ccccc3)n(C)c3nccnc23)C1 (stereo not shown) [Compound 81, (5-Methyl-6-phenyl-5H-pyrrolo[2,3-b]pyrazin-7-yl)(3-((o-tolyloxy)methyl)piperidin-1-yl)methanone]",10 to 50
6,CC(C)c1cc(C(=O)N2CCCC(COc3ccccc3)C2)c(C(C)C)o1 (stereo not shown) [Compound 207],< 10
7,Cc1ccc(-c2nc(N3CCC(CO)CC3)ncc2-c2ccc(CO)cc2)cc1 [Compound 485],10 to 50
8,"C[C@@H]1CC[C@H](COc2ccc(C(F)(F)F)nc2)CN1c1cnc2cnn(CC(F)F)c2n1 [Compound 272, 1-(2,2-Difluoroethyl)-6-((2R,5S)-2-methyl-5-(((6-(trifluoromethyl)pyridin-3-yl)oxy)methyl)piperidin-1-yl)-1H-pyrazolo[3,4-b]pyrazine]",10 to 50
9,"C[C@@H]1CC[C@H](COc2ccncc2C(F)(F)F)CN1c1cnc2cnn(CC(F)F)c2n1 [Compound 282, 1-(2,2-Difluoroethyl)-6-((2R,5S)-2-methyl-5-(((3-(trifluoromethyl)pyridin-4-yl)oxy)methyl)piperidin-1-yl)-1H-pyrazolo[3,4-b]pyrazine]",< 10
10,Cc1cnccc1-c1ccc(C(=O)N2CCCC(COc3ccccc3)C2)s1 (stereo not shown) [Compound 142],< 10
11,"CC1CCC(COc2cccnc2C(F)(F)F)CN1c1cnc2cnn(C3COC3)c2n1 (stereo not shown) [Compound 117, 6-(2-Methyl-5-(((2-(trifluoromethyl)pyridin-3-yl)oxy)methyl)piperidin-1-yl)-1-(oxetan-3-yl)-1H-pyrazolo[3,4-b]pyrazine]",< 10
12,Fc1nccc(OC[C@@H]2[C@H]3CN(c4cnc5cnn(C6COC6)c5n4)C[C@@H]23)c1F [Compound 228],10 to 50

# Other lines, results leading:
row,EC50 [µM],Compound
1,10 to 50,"CCn1c(=O)n(CC)c2nc(N3C[C@@H](C)C[C@H](COc4cccnc4C(F)(F)F)C3)cnc21 [Compound 288b, 1,3-Diethyl-5-((3S,5S)-3-methyl-5-(((2-(trifluoromethyl)pyridin-3-yl)oxy)methyl)piperidin-1-yl)-1,3-dihydro-2H-imidazo[4,5-b]pyrazin-2-one]"
2,< 10,C[C@H](Oc1ccccc1C(F)(F)F)[C@@H]1CCCN(c2cnc3cnn(CC(F)F)c3n2)C1 (racemic) [Compound 5c]
3,10 to 50,"COCCn1ncc2ncc(N3C[C@@H](C)C[C@@H](COc4cccnc4C(F)(F)F)C3)nc21 [Compound 230a, 1-(2-Methoxyethyl)-6-((3S,5R)-3-methyl-5-(((2-(trifluoromethyl)pyridin-3-yl)oxy)methyl)piperidin-1-yl)-1H-pyrazolo[3,4-b]pyrazine]"
4,> 100,"C[C@@H]1CCN(c2cnc3cnn(CC(F)F)c3n2)C[C@@H]1COc1cccnc1C(F)(F)F [Compound 48a, 1-(2,2-Difluoroethyl)-6-((3R,4R)-4-methyl-3-(((2-(trifluoromethyl)pyridin-3-yl)oxy)methyl)piperidin-1-yl)-1H-pyrazolo[3,4-b]pyrazine]"
